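Five concentrations, 48 hours, 96-well plates. Here, GI50 denotes the concentration required for 50% inhibition of growth. The concentration for full growth arrest is given as TGI.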
Columns and labels:
Assay in all cases: DTP human tumour cell line panel, 48 h
[1] = system: IGROV1 ovarian
[2] = system: SF-268 CNS
[3] = system: LOX IMVI melanoma
[4] = system: UACC-62 melanoma
[5] = system: OVCAR-8 ovarian
[6] = system: OVCAR-4 ovarian
[7] = system: M14 melanoma
[8] = system: HL-60(TB) leukemia
[9] = system: DU-145 prostate
[10] = system: MCF7 breast

| Compound | TGI [1] [µM] | TGI [2] [µM] | TGI [3] [µM] | TGI [4] [µM] | TGI [5] [µM] | TGI [6] [µM] | GI50 [1] [µM] | GI50 [2] [µM] | GI50 [3] [µM] | GI50 [4] [µM] | GI50 [7] [µM] | TGI [7] [µM] | GI50 [8] [µM] | TGI [8] [µM] | TGI [9] [µM] | TGI [10] [µM] | GI50 [9] [µM] | GI50 [5] [µM] | GI50 [6] [µM] | GI50 [10] [µM] |
| --- | --- | --- | --- | --- | --- | --- | --- | --- | --- | --- | --- | --- | --- | --- | --- | --- | --- | --- | --- | --- |
| COc1cc(Br)c(C=Nc2cccc3ccc(OS(=O)(=O)c4cccc([N+](=O)[O-])c4)cc23)cc1OC | > 100 | > 100 | > 100 | > 100 | 86.5 | > 100 | – | – | – | – | – | – | – | – | – | – | – | – | – | – |
| N.N.N.N.N.N.O=N[O-].[Br-].[Co+3].[Co+3].[OH3+].[OH3+] | > 100 | > 100 | > 100 | > 100 | – | – | > 100 | > 100 | > 100 | > 100 | > 100 | > 100 | > 100 | > 100 | – | – | – | – | – | – |
| Cc1nn(-c2ccccc2)c(-c2ccccc2[N+](=O)[O-])c1CC#N | > 100 | > 100 | > 100 | > 100 | > 100 | > 100 | – | – | – | – | – | > 100 | – | > 100 | – | – | – | – | – | – |
| COc1ccc2c(c1)[n+]([O-])c(/C(C)=N/NC(=O)CC#N)c[n+]2[O-] | > 100 | > 100 | > 100 | > 100 | > 100 | > 100 | – | – | – | – | – | > 100 | – | > 100 | – | – | – | – | – | – |
| Nc1nc(CCC(=O)Nc2cccc(C(F)(F)F)c2)cc(-c2ccc3ccccc3c2)n1 | > 100 | > 100 | – | > 100 | > 100 | > 100 | – | – | – | – | – | > 100 | – | > 100 | – | – | – | – | – | – |
| Cc1ccc(SC(=O)N2C(=S)NC(=NC3CCCCC3)C23CCCCC3)cc1 | > 100 | > 100 | > 100 | > 100 | – | > 100 | – | – | – | – | – | > 100 | – | > 100 | > 100 | > 100 | – | – | – | – |
| S=c1nc(-c2cccnc2)[nH][nH]1 | – | > 100 | > 100 | – | – | > 1 | – | – | – | – | – | > 100 | – | > 100 | – | – | – | – | – | – |
| CCOC(=O)[C@H]1Nc2ccc(OC)cc2C2c3ccccc3CC21 (stereo partly specified) | > 100 | > 100 | > 100 | > 100 | > 100 | > 100 | – | – | – | – | – | > 100 | – | – | – | – | – | – | – | – |
| O=C(OC[C@H]1O[C@@H](OC(=O)c2cc(O)c(O)c(O)c2)[C@H](OC(=O)c2cc(O)c(O)c(O)c2)[C@@H](OC(=O)c2cc(O)c(O)c(O)c2)[C@@H]1OC(=O)c1cc(O)c(O)c(O)c1)c1cc(O)c(O)c(O)c1 | > 100 | 33.7 | 4.41 | 6.44 | 24.9 | 41.1 | – | – | – | – | – | 24.4 | – | > 100 | – | – | – | – | – | – |
| CCC(c1cccc(O)c1)C(CC)c1cccc(O)c1 (stereo unspecified) | 25.3 | 20.3 | 16.9 | 16 | 35.2 | 14.3 | 10.8 | 5.18 | 4.07 | 3.67 | 2.93 | 13.2 | – | – | 29.9 | 8.04 | 11 | 12.8 | 1.21 | 1.62 |
| COC(=O)C1=C(CS(=O)c2ccccc2[N+](=O)[O-])ON(C)C1c1ccccc1 (stereo unspecified) | > 100 | 94.6 | 28.9 | > 100 | 56.2 | > 100 | – | – | – | – | – | > 100 | – | 38.6 | – | – | – | – | – | – |
| O=c1ccc(=O)c2c(=O)c3ccccc3c(=O)c1=2 | > 100 | > 100 | > 100 | > 100 | > 100 | > 100 | – | – | – | – | – | > 100 | – | 70.9 | – | – | – | – | – | – |
| COc1ccc(C2CC(n3nnnc3-c3ccccc3)=NN2)cc1 (stereo unspecified) | > 100 | 54.5 | 15.2 | 12.5 | 61.7 | 94.8 | 2.44 | 6.38 | 0.693 | 0.465 | 0.6 | 14.6 | – | – | 49.3 | 38.7 | 12.9 | 4.07 | 1.11 | 2.68 |
| CC(=O)OC1[C@H]2c3cc4c(cc3CN3CCC(=C[C@@H]1O)C23)OCO4 (stereo partly specified) | > 100 | > 100 | > 100 | > 100 | > 100 | – | – | – | – | – | – | > 100 | – | > 100 | – | – | – | – | – | – |
| COC(=O)CCCCCN=Cc1c(O)c(O)c(C(C)C)c2cc(C)c(-c3c(C)cc4c(C(C)C)c(O)c(O)c(C=NCCCCCC(=O)OC)c4c3O)c(O)c12 | > 32.5 | > 32.5 | 4.82 | – | > 32.5 | > 32.5 | 1.76 | 1.51 | 1.28 | – | 2.3 | 25.9 | 1.09 | 7.93 | 21.1 | 5.83 | 1.78 | 1.27 | 1.05 | 1.04 |
| Cc1c2cc[n+](C)cc2c(C)c2c1[nH]c1ccc(O)c(OCC(F)(F)F)c12 | 23.1 | 1.1 | 46.5 | 25.2 | 25.5 | 12.8 | – | – | – | – | – | 15.7 | – | 13 | – | – | – | – | – | – |
| C=C1C(=O)OC2/C=C(\C=O)CC/C=C(\C)C(O)C[C@@H]12 (stereo partly specified) | 32.3 | 14.7 | 18.5 | 18.5 | 12 | 27.5 | – | – | – | – | – | 12.4 | – | > 21.4 | – | – | – | – | – | – |
| C[N+]1(C)C/C(=C\c2ccncc2)C(=O)/C(=C/c2ccncc2)C1 | > 100 | 84.7 | > 100 | > 100 | > 100 | > 100 | – | – | – | – | – | > 100 | – | 79.5 | – | – | – | – | – | – |
| C=C1C(=O)O[C@H]2C[C@@]3(C)[C@H](O)CCC(=C)[C@@H]3[C@@H](OC(C)=O)[C@H]12 | 30 | > 52.2 | 19.7 | 37.3 | 50.4 | 20.8 | – | – | – | – | – | 25.2 | – | – | 26.6 | 9.84 | – | – | – | – |
| CC1(C)C2CCC3(C2)CS(=O)(=O)N2OC231 (stereo unspecified) | 43.4 | 47.2 | 31.1 | 31.8 | 67.2 | – | – | – | – | – | – | 30 | – | 43.3 | – | – | – | – | – | – |
| Cc1nc(C(N)=S)sc1C(=O)C/C(=N/N)C(=O)Nc1cccc(Cl)c1C | > 100 | > 100 | > 100 | > 100 | > 100 | > 100 | – | – | – | – | – | > 100 | – | > 100 | – | > 100 | – | – | – | – |

From PubChem BioAssay (NCI)
